From ChEMBL document CHEMBL1140774, “Sterol C24-methyltransferase: mechanistic studies of the C-methylation reaction with 24-fluorocycloartenol” (Bioorg Med Chem Lett, 2008)

Tested on: Glycine max
Test: Activity of soybean recombinant SMT1

Km: 30 µM | kcat: 0.01 s⁻¹
Compound: CC(C)=CCC[C@@H](C)[C@H]1CC[C@@]2(C)[C@@H]3CC[C@H]4C(C)(C)[C@@H](O)CC[C@@]45C[C@@]35CC[C@]12C
